Data from patent publication US11841369B2, “Method for improving quality of therapeutic cell through real-time glutathione measurement” (CELL2IN, INC., priority 2017, dated 2023).

Assays:
hES-MSCs [1] = experiment: CFU-F of FreSH-Tracer-sorted hES-MSCs; format: cell-based, human
Method: Twelve hours after hES-MSCs were seeded in […] tissue culture media at a density of 3×10^6 cells/mL, the cells were washed two times with 30 mL of PBS, and labeled with an EGM-2 MV culture solution containing 2 μM FreSH for 2 hours. After the two hours, the cells were washed with 2 μM FreSH-containing PBS twice and treated with a TrypsinLE (Invitrogen) solution to detach the cells, and then trypsin was inactivated with a fresh EGM-2 MV medium containing 2 μM FreSH. Afterward, the cells were centrifuged at 4° C. and 2000 rpm for 20 minutes, and resuspended in a fresh EGM-2 MV medium containing 2 μM FreSH to have a density of 5×10^7 cells/mL. The suspension was diluted 1/5 with PBS containing 2 μM FreSH immediately before loading for FACS (diluted by approximately 1 mL at a time to maintain a temperature of 4° C.).
Afterward, under the following conditions, FACS Instruction (BD ARIAIII, laser at wavelengths of 405 (for measuring F510) and 488 (for measuring F580), nozzle size: 100 μm, 2,000-3,000 events/sec), FACS analysis was performed by gating the cells corresponding to the upper 3.9-35% and the lower 3.9-35% of total cells according to the F510/F580 ratio. […]
Main factors for determining the therapeutic efficacy of hBM-MSCs, namely a colony forming unit-fibroblast (CFU-F) and a graft survival rate, were evaluated in cell culture models. […]

hES-MSCs [2] = experiment: PDGF-AA-induced cell migration of unsorted hES-MSCs; format: cell-based, human; conditions: hES-MSCs not sorted by FreSH-Tracer
Method: Main factors for determining the therapeutic efficacy of hBM-MSCs, namely a colony forming unit-fibroblast (CFU-F) and a graft survival rate, were evaluated in cell culture models.
In order to test whether direct control of a GSH level in stem cells leads to changes in cell functions, hES-MSCs sorted by FreSH-Tracer were treated with buthionine sulfoximine (BSO; glutathione synthesis inhibitor) and glutathione ethyl ester (GSH-EE). When GSH was decreased in cells by treating GSH^High cells with BSO (80 μM, 24 h), it was confirmed that CFU-F increased, and on the other hand, when GSH was increased by treating GSH^Low cells with GSH-EE (1 mM, 2 h), it was confirmed that CFU-F decreased (FIG. 13A). In addition, it was confirmed that, when hES-MSCs which were not sorted by FreSH-Tracer were treated with BSO or GSH-EE, PDGF-AA-induced cell migration capacity was decreased or increased, respectively (FIG. 13B).

hUC-MSCs [3] = experiment: CFU-F assay of hUC-MSCs; format: cell-based, human
Method: (§1) The inventors observed an effect of the material on stem cells by treating each stem cells with a material for enhancing a glutathione evaluation parameter. When hUC-MSCs were subcultured in a L-AA2G-containing medium, CFU-F, migration capacity, and an anti-inflammatory effect were observed. A CFU-F assay (n=3) was performed by treating hUC-MSCs with 125 or 250 μg/mL of AA2G for three days. As shown in FIGS. 16A and 16B, it was confirmed that, when AA2G was treated, CFU-F increased. In addition, as hUC-MSCs were treated with 125 or 250 μg/mL of AA2G for three days, PDGF-AA-induced migration capacity (n=3) was analyzed. As shown in FIGS. 17A and 17B, it was confirmed that the migration capacity was increased by AA2G treatment. In addition, the reduction in T cell proliferation, a reduction in T cell differentiation, and the promotion of Treg cell differentiation were observed by treating hUC-MSCs with 125 or 250 μg/mL of AA2G for three days. […] Meanwhile, hUC-MSCs were cultured with a glutathione precursor such as γ-glutamyl cysteine (GGC, 0.1, 0.25, and 0.5 mM). A CFU-F assay (n=3) was performed by treating hUC-MSCs with each concentration of GGC for 2 hours. […] In addition, SDF1α and PDGF-AA-induced migration capacities (n=3) were analyzed for hUC-MSCs without treatment with GGC, and SDF1α- and PDGF-AA-induced migration abilities (n=3) were analyzed by treating hUC-MSCs with the increasing concentrations of GGC. STI571 was used as a PDGFR kinase inhibitor. As shown in FIGS. 20A to 20C, it was confirmed that, according to an increase in GGC treatment concentration, SDF1α- and PDGF-AA-induced migration capacities were enhanced. A CFU-F assay (n=3) was performed by treating hUC-MSCs with 0.2, 1, 2, and 4 μM ferrostatin-1 and 0.1, 0.5, 1, and 2 μM liproxstatin-1 for 24 hours.

hUC-MSCs [4] = experiment: SDF1α- and PDGF-AA-induced migration capacity of hUC-MSCs; format: cell-based, human; conditions: increasing GGC concentration (0.1, 0.25 mM)
Method: as §1, with “enhanced.” for “enhanced. A CFU-F assay (n=3) was performed by treating hUC-MSCs with 0.2, 1, 2, and 4 μM ferrostatin-1 and 0.1, 0.5, 1, and 2 μM liproxstatin-1 for 24 hours.”

T cells = experiment: Anti-inflammatory effect of treated hUC-MSCs: T cell proliferation, T cell differentiation, Treg cell differentiation; format: cell-based; conditions: for T cell differentiation capacity / T cell proliferation ability / Treg cell differentiation: hUC-MSCs treated with 1 μM ferrostatin-1 24 h, 0.2 mM GGC 2 h or 2 mM GSH-EE 2 h
Method: The inventors observed an effect of the material on stem cells by treating each stem cells with a material for enhancing a glutathione evaluation parameter. When hUC-MSCs were subcultured in a L-AA2G-containing medium, CFU-F, migration capacity, and an anti-inflammatory effect were observed. A CFU-F assay (n=3) was performed by treating hUC-MSCs with 125 or 250 μg/mL of AA2G for three days. As shown in FIGS. 16A and 16B, it was confirmed that, when AA2G was treated, CFU-F increased. In addition, as hUC-MSCs were treated with 125 or 250 μg/mL of AA2G for three days, PDGF-AA-induced migration capacity (n=3) was analyzed. As shown in FIGS. 17A and 17B, it was confirmed that the migration capacity was increased by AA2G treatment. In addition, the reduction in T cell proliferation, a reduction in T cell differentiation, and the promotion of Treg cell differentiation were observed by treating hUC-MSCs with 125 or 250 μg/mL of AA2G for three days.
In addition, hUC-MSCs were cultured with ferrostatin-1 (0.2, 1, 2 and 4 μM) and liproxstatin-1 (0.1, 0.5, 1 and 2 μM), which control a glutathione level in cells by inhibiting lipid oxidation. […] Meanwhile, the hUC-MSCs were treated with 1 μM ferrostatin-1 for 24 hours, 0.2 mM GGC for 2 hours, and 2 mM GSH-EE for 2 hours. As a result, the reduction in T cell proliferation ability and the reduction in T cell differentiation capacity were observed, and promotion of Treg cell differentiation was observed.

hUC-MSCs [5] = experiment: Oxidative stress resistance capacity (ORC) analysis with RSL3; format: cell-based, human; conditions: hUC-MSCs, 0, 2.5, 5 or 10 μM liproxstatin-1 with 0, 0.5 or 1 μM RSL3; concentration-dependent
Method: In addition, GH is calculated as the coefficient of variation or robust coefficient of variation of cellular FR. GRC refers to a value obtained by real-time monitoring of FR after living cells are treated with an oxidizing agent, as calculated by dividing a value obtained by subtracting AUC of a group treated with 0.1-100 mM N-ethylmaleimide (NEM) from FR AUC of an oxidizing agent (diamide, H2O2, etc.)-treated group by a value obtained by subtracting the AUC of NEM-treated group from AUC of the untreated control, and multiplying the resulting value by 100. The FR of the NEM-treated group is a value for increasing the sensitivity of a GRC value by treating it as the blank value of the FR of the cells of interest. […] To remove the MitoFreSH-Tracer from the medium before measurement, the medium was exchanged with fresh 10 mM HEPES-containing HBSS, and a fluorescence image was obtained using a confocal imaging system, Operetta. By comparing GSH levels quantified from control cells not treated with RSL3 or control cells before treated with RSL3, the distribution of GSH expression-changed cells was calculated. Based on the point where the distribution histogram is divided into two peaks, the cells were divided into GSH^High cells (right peak) and GSH^Low cells (left peak), and then a ratio of corresponding cells was expressed as a percentage (%). […]

SMILES: CCCCS(=N)(=O)CCC(N)C(=O)O (centres unmarked) [BSO, buthionine sulfoximine]
- CFU-F (hES-MSCs [1]; GSH^High hES-MSCs, BSO 80 μM, 24 h): increased
- PDGF-AA-induced cell migration capacity (hES-MSCs [2]): decreased

SMILES: N[C@@H](CCC(=O)N[C@@H](CS)C(=O)O)C(=O)O [GGC, γ-glutamyl cysteine]
- CFU-F (hUC-MSCs [3]; GGC 0.1, 0.25 and 0.5 mM, 2 hours): increased
- PDGF-AA-induced migration capacity (hUC-MSCs [4]): enhanced
- SDF1α-induced migration capacity (hUC-MSCs [4]): enhanced
- T cell differentiation capacity (T cells): reduction
- T cell proliferation ability (T cells): reduction
- Treg cell differentiation (T cells): promotion
- anti-inflammatory effect (T cells; hUC-MSCs with GGC treatment (FIGS. 27, 28A to 28C)): no change

SMILES: CCOC(=O)CNC(=O)[C@H](CS)NC(=O)CC[C@H](N)C(=O)O [GSH-EE, glutathione ethyl ester]
- CFU-F (hES-MSCs [1]; GSH^Low hES-MSCs, GSH-EE 1 mM, 2 h): decreased
- PDGF-AA-induced cell migration capacity (hES-MSCs [2]): increased
- T cell differentiation capacity (T cells): reduction
- T cell proliferation ability (T cells): reduction
- Treg cell differentiation (T cells): promotion

SMILES: Clc1cccc(CN=C2Nc3ccccc3NC23CCNCC3)c1 [liproxstatin-1]
- ratio of the GSH^High cells (ORC) (hUC-MSCs [5]): increased
- CFU-F (hUC-MSCs [3]; ferrostatin-1 0.2, 1, 2, 4 μM or liproxstatin-1 0.1, 0.5, 1, 2 μM, 24 hours): improved
- anti-inflammatory effect of the hUC-MSCs (T cells; ferrostatin-1 or liproxstatin-1 treatment (FIGS. 27, 28A to 28C)): did not alter
